In brackets after ≈: the same amount, converted by molar mass. Activity calls are given as the source filed them. The rule behind the calls is not given here.
Experiments:
[1] = system: Pseudomonas aeruginosa; assay: Antibacterial activity against Pseudomonas aeruginosa PAO1 measured after 18 to 24 hrs by broth microdilution method; type: functional; conditions: time 18-24 hrs
[2] = system: Staphylococcus aureus; assay: Antibacterial activity against Staphylococcus aureus isolate 38 measured after 18 to 24 hrs by broth microdilution method; type: functional; conditions: time 18-24 hrs
[3] = Inhibition of quorum sensing system in Pseudomonas aeruginosa PAO1 assessed as reduction in pyocyanin production at 64 uM measured after 48 hrs relative to control
[4] = system: Escherichia coli; assay: Antibacterial activity against Escherichia coli K12 measured after 18 to 24 hrs by broth microdilution method; type: functional; conditions: time 18-24 hrs
[5] = target: T1, Transcriptional activator protein LasR (Pseudomonas aeruginosa (strain ATCC 15692 / PAO1 / 1C / PRS 101 / LMG12228)) (UniProt P25084); assay: Inhibition of LasR quorum sensing system in Pseudomonas aeruginosa MH602 expressing PlasB::gfp assessed as reduction in GFP expression at 16 uM incubated for 15 hrs by fluorescence microplate reader analysis relative to control
T1 sequence (whole entry): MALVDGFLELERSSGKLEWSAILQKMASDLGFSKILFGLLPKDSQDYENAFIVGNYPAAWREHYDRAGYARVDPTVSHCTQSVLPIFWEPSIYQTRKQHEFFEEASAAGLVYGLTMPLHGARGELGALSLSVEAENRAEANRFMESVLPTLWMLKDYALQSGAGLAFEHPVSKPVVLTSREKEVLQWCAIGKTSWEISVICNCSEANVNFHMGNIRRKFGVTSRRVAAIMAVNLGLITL

[6] = Hemolytic activity in horse RBC measured after 4 hrs; type: toxicity, cell-based, Equus caballus, Erythrocyte; conditions: horse red blood cells
[7] = Hemolytic activity in horse RBC assessed as hemolysis at 500 uM measured after 4 hrs relative to control; type: toxicity, cell-based, Equus caballus, Erythrocyte; conditions: horse red blood cells, read-out: Activity
[8] = system: Pseudomonas aeruginosa; assay: Growth inhibition of Pseudomonas aeruginosa MH602 expressing PlasB::gfp at 16 uM relative to control; type: functional; conditions: read-out: GI

| Structure (SMILES) | MIC90 [1] | MIC90 [2] | inhibition [3] | MIC90 [4] | inhibition [5] | HC50 at 4 h [6] | hemolysis at 4 h, 500 µM [7] | inhibition of growth at 16 µM [8] |
| --- | --- | --- | --- | --- | --- | --- | --- | --- |
| C=C1C(c2ccccc2)=CC(=O)N1CCC[n+]1ccn(C)c1 | > 250 µM | > 250 µM | inactive | > 250 µM | 17.6% | – | – | – |
| O=C1C=C(Br)/C(=C/Br)O1 | – | – | – | – | 62.5% | – | – | – |
| C=C1C(c2ccc(F)cc2)=CC(=O)N1CC[Se]C(=N)N | > 250 µM | 64 µM (≈ 21.6 µg/mL) | – | 250 µM (≈ 84.6 µg/mL) | 64.5% | – | – | – |
| C=C1C(c2ccc(Br)cc2)=CC(=O)N1CC[Se]C(=N)N | > 250 µM | 64 µM (≈ 25.5 µg/mL) | 70% | 125 µM (≈ 49.9 µg/mL) | 69.4% | – | – | – |
| C=C1C(c2ccc(Br)cc2)=CC(=O)N1CC[n+]1ccn(C)c1 | > 250 µM | 64 µM | inactive | 250 µM | 0% | – | – | – |
| C=C1C(c2ccccc2)=CC(=O)N1CC[n+]1ccn(C)c1 | > 250 µM | 250 µM | inactive | 250 µM | 14.4% | – | – | – |
| C=C1C(c2ccc(Br)cc2)=CC(=O)N1CCC[Se]C(=N)N | 250 µM (≈ 103 µg/mL) | 32 µM (≈ 13.2 µg/mL) | – | 64 µM (≈ 26.4 µg/mL) | 53.2% | > 250 µM | – | – |
| C=C1C(c2ccccc2)=CC(=O)N1CCC[Se]C(=N)N | > 250 µM | 250 µM (≈ 83.6 µg/mL) | – | > 250 µM | 51.5% | – | – | – |
| C=C1C(c2ccccc2)=CC(=O)N1CC[Se]C(=N)N | > 250 µM | > 250 µM | – | > 250 µM | 30.5% | – | – | – |
| C=C1C(c2ccc(F)cc2)=CC(=O)N1CCC[Se]C(=N)N | > 250 µM | 250 µM (≈ 88.1 µg/mL) | – | 250 µM (≈ 88.1 µg/mL) | 41.9% | – | – | – |
| C=C1C(c2ccc(Cl)cc2)=CC(=O)N1CCC[Se]C(=N)N | > 250 µM | 64 µM (≈ 23.6 µg/mL) | – | 125 µM (≈ 46.1 µg/mL) | 56.2% | > 500 µM | – | – |
| C=C1C(c2ccc(Cl)cc2)=CC(=O)N1CC[Se]C(=N)N | > 250 µM | 64 µM (≈ 22.7 µg/mL) | – | 125 µM (≈ 44.3 µg/mL) | 72.8% | > 500 µM | – | 15% |

Second part, led by results:

| MIC90 [1] | MIC90 [2] | inhibition [3] | MIC90 [4] | inhibition [5] | Structure (SMILES) | HC50 at 4 h [6] | hemolysis at 4 h, 500 µM [7] | inhibition of growth at 16 µM [8] |
| --- | --- | --- | --- | --- | --- | --- | --- | --- |
| > 250 µM | 250 µM | inactive | > 250 µM | 23.4% | C=C1C(c2ccc(Cl)cc2)=CC(=O)N1CC[n+]1ccn(C)c1 | – | – | – |
| 125 µM (≈ 44 µg/mL) | 16 µM (≈ 5.64 µg/mL) | – | 32 µM (≈ 11.3 µg/mL) | 57.1% | C=C1C(c2ccc(Br)cc2)=CC(=O)N1CCSC(=N)N | > 500 µM | 22% | – |
| > 250 µM | 250 µM | inactive | > 250 µM | 17.3% | C=C1C(c2ccc(Cl)cc2)=CC(=O)N1CCC[n+]1ccn(C)c1 | – | – | – |
| 250 µM (≈ 80.5 µg/mL) | 64 µM (≈ 20.6 µg/mL) | 70% | 64 µM (≈ 20.6 µg/mL) | 53.1% | C=C1C(c2ccc(Cl)cc2)=CC(=O)N1CCCSC(=N)N | – | – | – |
| > 250 µM | 250 µM (≈ 72.8 µg/mL) | 70% | 250 µM (≈ 72.8 µg/mL) | 73.4% | C=C1C(c2ccc(F)cc2)=CC(=O)N1CCSC(=N)N | – | – | 16% |
| 250 µM (≈ 76.3 µg/mL) | 64 µM (≈ 19.5 µg/mL) | – | 125 µM (≈ 38.2 µg/mL) | 59.9% | C=C1C(c2ccc(F)cc2)=CC(=O)N1CCCSC(=N)N | > 500 µM | – | – |
| > 250 µM | > 250 µM | inactive | > 250 µM | 31.4% | C=C1C(c2ccc(F)cc2)=CC(=O)N1CC[n+]1ccn(C)c1 | – | – | – |
| > 250 µM | > 250 µM | > 60% | > 250 µM | 9.5% | C=C1C(c2ccccc2)=CC(=O)N1CCSC(=N)N | – | – | > 20% |
| > 250 µM | 32 µM | inactive | 125 µM | 0% | C=C1C(c2ccc(Br)cc2)=CC(=O)N1CCC[n+]1ccn(C)c1 | > 31 µM | – | – |
| > 250 µM | > 250 µM | inactive | > 250 µM | 14.6% | C=C1C(c2ccc(F)cc2)=CC(=O)N1CCC[n+]1ccn(C)c1 | – | – | – |
| > 250 µM | 125 µM (≈ 35.9 µg/mL) | – | > 250 µM | 0% | C=C1C(c2ccccc2)=CC(=O)N1CCCSC(=N)N | – | – | > 20% |
| > 250 µM | 125 µM (≈ 38.5 µg/mL) | – | > 250 µM | 40.8% | C=C1C(c2ccc(Cl)cc2)=CC(=O)N1CCSC(=N)N | – | – | – |
| 250 µM (≈ 91.6 µg/mL) | 64 µM (≈ 23.4 µg/mL) | – | 64 µM (≈ 23.4 µg/mL) | 48.3% | C=C1C(c2ccc(Br)cc2)=CC(=O)N1CCCSC(=N)N | – | – | < 20% |
